One assay addresses GSK3α (Homo sapiens, UniProt P49840). Briefly: GSK3α kinase assay (Caliper LabChip, fluoresceinated peptide substrate). Type of assay: biochemical. Summed up: (§1)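 RT, 20 h incubation; EDTA stop (35 mM). Microfluidic electrophoretic separation of product vs. substrate.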
Another assay concerns the target GSK3β (Homo sapiens, UniProt P49841). The assay is described as follows: GSK3β kinase assay (Caliper LabChip, fluoresceinated peptide substrate). Format: biochemical. The conditions noted are these: first value of the cell; 250 pM enzyme, 20 uM ATP, 20 hours at room temperature; read-out: GSK3β/α (nM): GSK3β IC50. The method in brief: as §1
For the next assay, the system named is pTau. The assay is described as follows: pTau assay (no method described). Format: cell-based.

Chain of GSK3α (P49840 whole entry, species assumed): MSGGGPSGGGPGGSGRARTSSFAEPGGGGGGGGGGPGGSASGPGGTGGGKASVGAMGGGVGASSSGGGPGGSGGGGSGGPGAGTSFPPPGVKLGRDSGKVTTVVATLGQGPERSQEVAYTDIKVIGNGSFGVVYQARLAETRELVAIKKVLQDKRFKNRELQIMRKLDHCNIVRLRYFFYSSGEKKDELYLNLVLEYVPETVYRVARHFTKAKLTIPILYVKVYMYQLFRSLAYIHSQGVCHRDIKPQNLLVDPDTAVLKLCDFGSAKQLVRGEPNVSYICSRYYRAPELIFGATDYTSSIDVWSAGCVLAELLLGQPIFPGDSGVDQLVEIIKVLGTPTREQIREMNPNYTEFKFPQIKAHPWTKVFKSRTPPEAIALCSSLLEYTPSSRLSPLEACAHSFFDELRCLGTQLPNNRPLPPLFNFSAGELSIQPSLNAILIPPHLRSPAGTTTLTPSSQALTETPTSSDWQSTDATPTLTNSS
Chain of GSK3β (P49841 whole entry, species assumed): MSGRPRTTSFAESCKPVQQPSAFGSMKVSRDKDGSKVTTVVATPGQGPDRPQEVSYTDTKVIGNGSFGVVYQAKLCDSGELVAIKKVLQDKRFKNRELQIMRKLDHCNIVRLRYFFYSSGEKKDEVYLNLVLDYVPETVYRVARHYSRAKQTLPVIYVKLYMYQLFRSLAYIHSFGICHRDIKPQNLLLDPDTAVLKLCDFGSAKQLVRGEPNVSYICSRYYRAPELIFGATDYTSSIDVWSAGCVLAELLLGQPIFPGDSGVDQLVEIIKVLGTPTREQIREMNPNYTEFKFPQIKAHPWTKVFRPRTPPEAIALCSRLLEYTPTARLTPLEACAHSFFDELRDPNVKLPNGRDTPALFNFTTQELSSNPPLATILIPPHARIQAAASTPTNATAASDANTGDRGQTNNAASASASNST

Turning to `O=C(Nc1cnccc1-c1ccc(Cl)cc1)c1ccnc(Nc2ccc(Cl)cn2)c1` [Example 60, N-(4-(4-Chlorophenyl)pyridin-3-yl)-2-((5-chloropyridin-2-yl)amino)isonicotinamide], the IC50 against GSK3α is 1.2 nM; at GSK3β, 2.7 nM; in the assay with pTau, 270 nM.
For `CC(C)(C#N)c1ccc(Nc2cc(C(=O)Nc3cnccc3-c3ccccc3)ccn2)nc1` [Example 61, 2-((5-(2-Cyanopropan-2-yl)pyridin-2-yl)amino)-N-(4-phenylpyridin-3-yl)isonicotinamide], the IC50 on GSK3α is 0.54 nM; at GSK3β, 1.5 nM; in the assay on pTau it was 150 nM.
Turning to `N#CC1(c2ccc(Nc3cc(C(=O)Nc4cnccc4-c4ccccc4)ccn3)nc2)CC1` [Example 62, 2-((5-(1-Cyanocyclopropyl)pyridin-2-yl)amino)-N-(4-phenylpyridin-3-yl)isonicotinamide], the IC50 worked out at 0.29 nM on GSK3α, 0.62 nM on GSK3β and 37 nM in the assay with pTau.
Taken in the same sequence, the figures for `O=C(Nc1cnccc1-c1ccccc1)c1ccnc(Nc2ccc(Br)cn2)c1` [Example 63, 2-((5-Bromopyridin-2-yl)amino)-N-(4-phenylpyridin-3-yl)isonicotinamide] were 3.4 nM, 9.3 nM and 150 nM.
`O=C(Nc1cncc2ccccc12)c1ccnc(Nc2ccc(C(F)(F)F)cn2)c1` [Example 64, N-(Isoquinolin-4-yl)-2-((5-(trifluoromethyl)pyridin-2-yl)amino)isonicotinamide]: the IC50 was 3.1 nM on GSK3α, 10 nM on GSK3β and 610 nM with pTau.
In the case of `N#Cc1ccc(Nc2cc(C(=O)Nc3cncc4ccccc34)ccn2)nc1` [Example 65, 2-((5-Cyanopyridin-2-yl)amino)-N-(isoquinolin-4-yl)isonicotinamide], the IC50 against GSK3α was found to be 3.2 nM; at GSK3β, 8.5 nM; in the assay with pTau, 420 nM.
On the same counts, the results for `O=C(Nc1cnc(Cl)cc1-c1ccccc1)c1ccnc(Nc2ccc(C(F)(F)F)cn2)c1` [Example 66, N-(6-Chloro-4-phenylpyridin-3-yl)-2-((5-(trifluoromethyl)pyridin-2-yl)amino)isonicotinamide] are 29 nM, 61 nM and 5850 nM.
On the same counts, the results for `O=C(Nc1cnc(F)cc1-c1ccccc1)c1ccnc(Nc2ccc(C(F)(F)F)cn2)c1` [Example 67, N-(6-Fluoro-4-phenylpyridin-3-yl)-2-((5-(trifluoromethyl)pyridin-2-yl)amino)isonicotinamide] are 4 nM, 7 nM and 524 nM.
Taken in the same sequence, the figures for `Cc1cc(-c2ccccc2)c(NC(=O)c2ccnc(Nc3ccc(C(F)(F)F)cn3)c2)cn1` [Example 68, N-(6-Methyl-4-phenylpyridin-3-yl)-2-((5-(trifluoromethyl)pyridin-2-yl)amino)isonicotinamide] were 5.7 nM, 12 nM and 1010 nM.
`O=C(Nc1cnc(Cl)cc1N1CCC(F)(F)CC1)c1ccnc(Nc2ccc(C(F)(F)F)cn2)c1` [Example 70, N-(6-Chloro-4-(4,4-difluoropiperidin-1-yl)pyridin-3-yl)-2-((5-(trifluoromethyl)pyridin-2-yl)amino)isonicotinamide]: the IC50 is 2.6 nM against GSK3α, 7.6 nM at GSK3β and 564 nM in the assay on pTau.
As to `O=C(Nc1cnc(F)cc1N1CCC(F)(F)CC1)c1ccnc(Nc2ccc(C(F)(F)F)cn2)c1` [Example 71, N-(6-Fluoro-4-(4,4-difluoropiperidin-1-yl)pyridin-3-yl)-2-((5-(trifluoromethyl)pyridin-2-yl)amino)isonicotinamide], the IC50 against GSK3α was 0.36 nM; on GSK3β, 1.3 nM; in the assay with pTau, 60 nM.
On the same counts, the results for `Cc1cc(N2CCC(F)(F)CC2)c(NC(=O)c2ccnc(Nc3ccc(C(F)(F)F)cn3)c2)cn1` [Example 72, N-(6-Methyl-4-(4,4-difluoropiperidin-1-yl)pyridin-3-yl)-2-((5-(trifluoromethyl)pyridin-2-yl)amino)isonicotinamide] are 0.76 nM, 3.5 nM and 120 nM.
On the same counts, the results for `O=C(Nc1cnc(F)cc1N1CCOCC1)c1ccnc(Nc2ccc(C(F)(F)F)cn2)c1` [Example 73, N-(6-Fluoro-4-morpholinopyridin-3-yl)-2-((5-(trifluoromethyl)pyridin-2-yl)amino)isonicotinamide] are 0.6 nM, 1 nM and 43 nM.
On the same counts, the results for `O=C(Nc1cnc(Cl)cc1C1(O)CCOCC1)c1ccnc(Nc2ccc(C(F)(F)F)cn2)c1` [Example 74, N-(6-Chloro-4-(4-hydroxytetrahydro-2H-pyran-4-yl)pyridin-3-yl)-2-((5-(trifluoromethyl)pyridin-2-yl)amino)isonicotinamide] are 2.5 nM, 3.4 nM and 180 nM.
Consider `CC(C)(C)COc1cc(F)ncc1NC(=O)c1ccnc(Nc2ccc(C(F)(F)F)cn2)c1` [Example 75, N-(6-Fluoro-4-(neopentyloxy)pyridin-3-yl)-2-((5-(trifluoromethyl)pyridin-2-yl)amino)isonicotinamide], for which the IC50 on GSK3α came out at 2.4 nM; at GSK3β, 5.1 nM; in the assay on pTau, 830 nM.
Taken in the same sequence, the figures for `CC1(c2cc(Cl)ncc2NC(=O)c2ccnc(Nc3ccc(C(F)(F)F)cn3)c2)OCCO1` [Example 76, N-(6-Chloro-4-(2-methyl-1,3-dioxolan-2-yl)pyridin-3-yl)-2-((5-(trifluoromethyl)pyridin-2-yl)amino)isonicotinamide] were 0.2 nM, 0.32 nM and 13 nM.
For `CC1(c2cc(Cl)ncc2NC(=O)c2ccnc(Nc3ccc(C(F)(F)F)cn3)c2)CCCO1` (stereo not drawn) [Example 77, N-(6-Chloro-4-(2-methyltetrahydrofuran-2-yl)pyridin-3-yl)-2-((5-(trifluoromethyl)pyridin-2-yl)amino)isonicotinamide], the IC50 against GSK3α worked out at 0.35 nM; on GSK3β, 0.63 nM; in the assay with pTau, 31 nM.
On the same counts, the results for `CC1OC(C)(c2cc(Cl)ncc2NC(=O)c2ccnc(Nc3ccc(C(F)(F)F)cn3)c2)OC1C` (stereo not drawn) [Example 78, N-(6-Chloro-4-(2,4,5-trimethyl-1,3-dioxolan-2-yl)pyridin-3-yl)-2-((5-(trifluoromethyl)pyridin-2-yl)amino)isonicotinamide] are 3.2 nM, 4.5 nM and 170 nM.
On the same counts, the results for `CCC1(c2cc(Cl)ncc2NC(=O)c2ccnc(Nc3ccc(C(F)(F)F)cn3)c2)OCCO1` [Example 79, N-(6-Chloro-4-(2-ethyl-1,3-dioxolan-2-yl)pyridin-3-yl)-2-((5-(trifluoromethyl)pyridin-2-yl)amino)isonicotinamide] are 0.17 nM, 0.31 nM and 33 nM.
As for `O=C(Nc1cnc(F)cc1OCC(F)F)c1ccnc(Nc2ccc(C(F)(F)F)cn2)c1` [Example 80, N-(4-(2,2-Difluoroethoxy)-6-fluoropyridin-3-yl)-2-((5-(trifluoromethyl)pyridin-2-yl)amino)isonicotinamide], the IC50 stood at 3.3 nM against GSK3α, 6.2 nM at GSK3β and 86 nM in the assay on pTau.
For the compound `CCC1(c2cc(Cl)ncc2NC(=O)c2ccnc(Nc3ccc(C(F)(F)F)cn3)c2)OC(C)C(C)O1` (stereo not drawn) [Example 81, N-(6-Chloro-4-(2-ethyl-4,5-dimethyl-1,3-dioxolan-2-yl)pyridin-3-yl)-2-((5-(trifluoromethyl)pyridin-2-yl)amino)isonicotinamide], the values for the IC50 against GSK3α, at GSK3β and in the assay with pTau were 4 nM, 6.7 nM and 1900 nM, respectively.
Taken in the same sequence, the figures for `CC1(c2cc(F)ncc2NC(=O)c2ccnc(Nc3ccc(C(F)(F)F)cn3)c2)OCCO1` [Example 82, N-(6-Fluoro-4-(2-methyl-1,3-dioxolan-2-yl)pyridin-3-yl)-2-((5-(trifluoromethyl)pyridin-2-yl)amino)isonicotinamide] were 1.9 nM, 7.1 nM and 230 nM.
`CC(C)C1(c2cc(Cl)ncc2NC(=O)c2ccnc(Nc3ccc(C(F)(F)F)cn3)c2)OCCO1` [Example 83, N-(6-Chloro-4-(2-isopropyl-1,3-dioxolan-2-yl)pyridin-3-yl)-2-((5-(trifluoromethyl)pyridin-2-yl)amino)isonicotinamide]: the IC50 on GSK3α is 0.55 nM; on GSK3β it was 1.1 nM; in the assay on pTau, 57 nM.
For the compound `CC1(c2cc(OCCO)ncc2NC(=O)c2ccnc(Nc3ccc(C(F)(F)F)cn3)c2)OCCO1` [Example 84, N-(6-(2-Hydroxyethoxy)-4-(2-methyl-1,3-dioxolan-2-yl)pyridin-3-yl)-2-((5-(trifluoromethyl)pyridin-2-yl)amino)isonicotinamide], the IC50 against GSK3α is 5 nM; on GSK3β, 9.2 nM; in the assay on pTau, 350 nM.
With `CC[C@@]1(c2cc(Cl)ncc2NC(=O)c2ccnc(Nc3ccc(C(F)(F)F)cn3)c2)OC[C@@H](C(F)(F)F)O1` [Example 85, N-(6-Chloro-4-((2R,4S)-2-ethyl-4-(trifluoromethyl)-1,3-dioxolan-2-yl)pyridin-3-yl)-2-((5-(trifluoromethyl)pyridin-2-yl)amino)isonicotinamide], the IC50 was 35 nM against GSK3α, 64 nM on GSK3β and 5500 nM in the assay on pTau.
For the compound `CC[C@@]1(c2cc(Cl)ncc2NC(=O)c2ccnc(Nc3ccc(C(F)(F)F)cn3)c2)OC[C@H](C(F)(F)F)O1` [Example 86, N-(6-Chloro-4-((2R,4R)-2-ethyl-4-(trifluoromethyl)-1,3-dioxolan-2-yl)pyridin-3-yl)-2-((5-(trifluoromethyl)pyridin-2-yl)amino)isonicotinamide], the IC50 on GSK3α turned out to be 2.4 nM; on GSK3β it was 12 nM; in the assay on pTau it was 510 nM.

(Values after patent US9718804B2, “GSK-3 inhibitors” (BRISTOL-MYERS SQUIBB COMPANY, priority 2013, dated 2017).)
